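How tested: cells in 96-well plates exposed to compound for 48 hours at five concentrations. GI50 = concentration required for 50% inhibition of growth. At the TGI there is no net growth.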
What was measured:
Assay in all cases: NCI tumour cell line growth inhibition, 48 h
SN12C renal = tested on: SN12C renal
HT29 colon = tested on: HT29 colon
M14 melanoma = tested on: M14 melanoma
MALME-3M melanoma = tested on: MALME-3M melanoma
OVCAR-8 ovarian = tested on: OVCAR-8 ovarian
SW-620 colon = tested on: SW-620 colon
OVCAR-4 ovarian = tested on: OVCAR-4 ovarian
MOLT-4 leukemia = tested on: MOLT-4 leukemia
HOP-62 NSCLC = tested on: HOP-62 NSCLC
CCRF-CEM leukemia = tested on: CCRF-CEM leukemia

| SMILES | TGI (SN12C renal) [µM] | TGI (HT29 colon) [µM] | TGI (M14 melanoma) [µM] | TGI (MALME-3M melanoma) [µM] | TGI (OVCAR-8 ovarian) [µM] | TGI (SW-620 colon) [µM] | TGI (OVCAR-4 ovarian) [µM] | TGI (MOLT-4 leukemia) [µM] | TGI (HOP-62 NSCLC) [µM] | TGI (CCRF-CEM leukemia) [µM] | GI50 (SN12C renal) [µM] | GI50 (HT29 colon) [µM] | GI50 (M14 melanoma) [µM] | GI50 (MALME-3M melanoma) [µM] | GI50 (OVCAR-8 ovarian) [µM] | GI50 (SW-620 colon) [µM] | GI50 (OVCAR-4 ovarian) [µM] | GI50 (MOLT-4 leukemia) [µM] | GI50 (HOP-62 NSCLC) [µM] | GI50 (CCRF-CEM leukemia) [µM] |
| --- | --- | --- | --- | --- | --- | --- | --- | --- | --- | --- | --- | --- | --- | --- | --- | --- | --- | --- | --- | --- |
| c1ccc2[nH]c(CNc3ccc(C4C[Se]N=N4)cc3)nc2c1 (stereo not given) | > 100 | > 100 | > 100 | > 100 | > 100 | > 100 | > 100 | 40.5 | > 100 | 82.5 | – | – | – | – | – | – | – | – | – | – |
| C=CCNC(=O)N(CCC)CCCC(NC(C)=O)C(=O)NCc1ccccc1 (stereo not given) | > 100 | > 100 | > 100 | > 100 | > 100 | > 100 | > 100 | > 100 | > 100 | > 100 | – | – | – | – | – | – | – | – | – | – |
| Cc1cc2c(cc1Cl)S/C(=C/C(=O)O)C(Nc1cccc3nsnc13)=NS2(=O)=O | > 53.4 | > 63.1 | > 60.5 | > 65.8 | > 74.8 | > 67.6 | 42.7 | > 59.4 | > 66.9 | > 81.9 | 27 | 6.17 | > 47 | > 53.4 | > 53.2 | 44.8 | 18.7 | 17.9 | > 54.8 | 22.5 |
| OCc1ccc(N2CCOCC2)cc1Cl | > 100 | > 100 | > 100 | > 100 | > 100 | > 100 | > 100 | > 100 | > 100 | > 100 | > 100 | > 81.8 | > 100 | > 100 | > 100 | > 100 | 55.6 | > 100 | > 100 | > 100 |
| O=[N+]([O-])c1cc(Cl)ccc1Sc1ccccc1 | > 100 | > 100 | > 100 | > 100 | > 100 | > 100 | > 100 | > 100 | > 100 | > 100 | – | – | – | – | – | – | – | – | – | – |
| CCCCCCCCCCCCCC[n+]1cccc(C(N)=O)c1 | 8.34 | 4.63 | 3.6 | 4.21 | 6.22 | 6.72 | 19.6 | 4.26 | 3.41 | 4.47 | 1.86 | 0.778 | 1.58 | 1.75 | 2.12 | 1.98 | 3.73 | 1.67 | 1.35 | 1.5 |
| Nc1cc(-c2ccc(Cl)cc2)nn1-c1nnc(/C=C/c2ccco2)c(=O)[nH]1 | > 100 | > 100 | 30.6 | 54.6 | 33 | > 100 | 13.4 | > 43 | 60.1 | > 41 | 18.5 | 6.61 | 3.41 | 7.44 | 4.09 | 5 | 2.64 | 3.17 | 6.83 | 2.26 |
| O=c1[nH]c2cc([N+](=O)[O-])ccc2nc1/C(=N\Nc1ccccc1)C(O)c1ccc2c(c1)OCO2 (stereo not given) | > 100 | > 100 | > 100 | > 100 | > 100 | > 100 | > 100 | > 100 | > 100 | > 100 | – | – | – | – | – | – | – | – | – | – |
| CC(=O)[CH-]C(=O)c1ccccc1.CC(=O)[CH-]C(=O)c1ccccc1.CC1(C)OCC(C2OC3OC(C)(C)OC3C2[O-])O1.CC[O-].[Ti+4] (stereo not given) | 33.1 | 29.3 | 36.1 | 27.7 | 26.9 | 44.5 | 32.2 | 82.1 | 31.1 | > 100 | 15.6 | 13.7 | 16.3 | 13.4 | 11.5 | 15.6 | 14.2 | 15.5 | 15.9 | 4.71 |
| Nc1ccccc1C(=O)C(Br)C(Br)c1ccc2c(c1)OCO2 (stereo not given) | 72.5 | 34.4 | 41.3 | 39 | 91.5 | > 100 | 59.8 | > 100 | 51 | > 100 | – | – | – | – | – | – | – | – | – | – |
| Cc1ccc2oc(=O)c(-c3ccccc3)nc2c1 | > 100 | > 100 | > 100 | 66.1 | > 100 | > 100 | 75.2 | > 100 | > 100 | > 100 | – | – | – | – | – | – | – | – | – | – |
| Cc1cccc(C)c1N1C(=O)C(=O)C(c2nc3ccccc3s2)/C(=N/NC(=O)NN)C1=O (stereo not given) | > 100 | > 100 | > 100 | > 100 | > 100 | > 100 | > 100 | > 100 | > 100 | > 100 | – | – | – | – | – | – | – | – | – | – |
| CC1(C)CC(=O)C(CC2C(=O)c3ccccc3C2=O)C(=O)C1 | > 100 | > 100 | > 100 | > 100 | > 100 | > 100 | > 100 | > 100 | > 100 | > 100 | – | – | – | – | – | – | – | – | – | – |
| CN(C)C(=S)Nc1nnc(Nc2ccccc2)s1 | > 100 | > 100 | > 100 | > 100 | > 100 | > 100 | > 100 | > 100 | > 100 | > 100 | – | – | – | – | – | – | – | – | – | – |
| O=C1CNS(=O)(=O)N1 | > 100 | > 100 | > 100 | > 100 | > 100 | > 100 | > 100 | > 100 | > 100 | > 100 | – | – | – | – | – | – | – | – | – | – |
| Cc1c(C)c(CC(=O)N2CC2)c(C)c(C)c1CC(=O)N1CC1 | > 56.7 | > 75.1 | 18.9 | 27.1 | > 49.6 | > 57.2 | 44.8 | 2.91 | 44.2 | > 48.8 | – | – | – | – | – | – | – | – | – | – |
| O=C1c2ccccc2-c2c1c1c(NCCCO)nc3ccccc3c1n2Cc1ccccc1 | 62.5 | 30.8 | 58.2 | 38.2 | > 100 | > 100 | 57 | 42.8 | 35.7 | 45.9 | 26 | 17.1 | 26.8 | 19 | 35 | 27.4 | 23 | 5.94 | 19.3 | 17.6 |
| CN1c2ccccc2SC2C(c3ccccc3)=NOC21 (stereo not given) | > 100 | > 100 | > 100 | 86.5 | > 100 | > 100 | > 100 | > 100 | > 100 | > 100 | – | – | – | – | – | – | – | – | – | – |
| Cc1ccc(C)c(N2C(=O)C(=O)C(c3nc4ccccc4s3)C(=Nc3cccc4c(=O)[nH][nH]c(=O)c34)C2=O)c1 (stereo not given) | > 100 | > 100 | > 100 | > 100 | > 100 | > 100 | > 100 | > 100 | > 100 | > 100 | – | – | – | – | – | – | – | – | – | – |
